According to ChEMBL document CHEMBL1201862, “PubChem BioAssay data set” (2004):
The source made the active and inactive calls.

How the values were obtained:
[1] = target: G2/mitotic-specific cyclin-B1 (Homo sapiens, UniProt P14635); experiment: Counterscreen assay for inhibitors of Wee1 degradation: dose response cell-based assay to identify inhibitors of cyclin B degradation. [Related pubchem assays: 1410, 1321 ]; assay type: functional
[2] = target: E3 ubiquitin-protein ligase Mdm2 (Homo sapiens, UniProt Q00987); experiment: enhancers of MDM2-luciferase reporter signal, concentration-effect titration, project on inhibitors of MDM2 ubiquitin ligase, cellular assay, luminescent readout, 384-well plate format (AID 1394); assay type: functional;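 note: MDM2 E3 inhibitors raise luminescence so EC50 is for signal enhancement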
[3] = target: Wee1-like protein kinase (Homo sapiens, UniProt P30291); experiment: Dose Response Cell-based Assay for Inhibitors of Wee1 Degradation. [Related pubchem assays: 1410, 1321 ]; assay type: functional
[4] = system: BJ; experiment: cells; assay type: functional, cell-based; conditions: Homo sapiens
[5] = inhibitors of intracellular T. cruzi replication, confirmation, NIH3T3 host cells, beta-gal luminescence (AID 2044); assay type: functional, cell-based;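 note: intracellular parasites grown in NIH/3T3 mouse fibroblasts as host cells; luminescent beta-galactosidase reporter signal from transgenic T. cruzi replicating inside host cells; inhibitors lower the luminescence signal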
[6] = cytotoxicity toward NIH3T3 fibroblasts, dose response, counter-screen, cell-based, ATP luminescence, mouse fibroblasts (AID 2010); assay type: functional;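 note: cells exposed to compound for about 90 hours before reading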
[7] = system: BJ; experiment: cytotoxicity toward BJ-TERT-LT-ST fibroblasts, dose response, cell-based, RAS-independent, luminescence (AID 1935); assay type: functional; conditions: Homo sapiens;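 note: BJ fibroblasts immortalized with TERT plus LT and ST oncogenes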
[8] = cytotoxicity toward DRD oncogenic fibroblasts, dose response, cell-based, non-viral oncogenic, luminescence (AID 1934); assay type: functional; conditions: Homo sapiens
[9] = target: T1, Replicative DNA helicase DnaB (Mycobacterium tuberculosis, UniProt P9WMR3); experiment: DnaB intein splicing inhibitors, dose response, biochemical, cell-free fluorescence (AID 449749); assay type: functional
T1 sequence (P9WMR3 whole entry): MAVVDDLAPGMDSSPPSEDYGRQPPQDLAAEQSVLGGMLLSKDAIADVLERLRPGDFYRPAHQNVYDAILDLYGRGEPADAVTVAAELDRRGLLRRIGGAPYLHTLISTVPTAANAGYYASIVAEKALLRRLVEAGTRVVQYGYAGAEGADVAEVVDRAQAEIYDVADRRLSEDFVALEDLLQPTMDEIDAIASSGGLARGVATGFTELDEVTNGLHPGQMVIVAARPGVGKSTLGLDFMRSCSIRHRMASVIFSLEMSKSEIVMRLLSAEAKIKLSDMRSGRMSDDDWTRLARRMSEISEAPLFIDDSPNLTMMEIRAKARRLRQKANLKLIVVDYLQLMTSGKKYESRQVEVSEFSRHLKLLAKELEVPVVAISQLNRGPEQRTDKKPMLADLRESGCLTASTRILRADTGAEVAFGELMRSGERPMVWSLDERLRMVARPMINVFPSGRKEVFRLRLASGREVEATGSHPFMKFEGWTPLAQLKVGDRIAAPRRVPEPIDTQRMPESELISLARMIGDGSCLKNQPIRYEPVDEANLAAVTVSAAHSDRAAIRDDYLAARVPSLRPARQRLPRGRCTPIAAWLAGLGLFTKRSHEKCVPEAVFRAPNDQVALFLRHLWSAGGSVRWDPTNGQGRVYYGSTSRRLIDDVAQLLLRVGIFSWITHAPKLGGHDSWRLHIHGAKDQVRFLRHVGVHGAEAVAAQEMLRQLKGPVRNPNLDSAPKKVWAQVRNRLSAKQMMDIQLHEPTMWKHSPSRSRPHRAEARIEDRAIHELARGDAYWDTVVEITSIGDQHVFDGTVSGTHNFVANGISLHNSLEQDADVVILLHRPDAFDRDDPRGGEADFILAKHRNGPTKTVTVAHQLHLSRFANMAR

[10] = target: T2, Protein RecA (Mycobacterium tuberculosis, UniProt P9WHJ3); experiment: Fluorescence Cell-Free Homogeneous Dose Retest to Identify Inhibitors of RecA-Intein Splicing Activity. [Related pubchem assays (depositor defined):AID2097, AID2223, AID489010, AID492950]; assay type: functional
T2 sequence (P9WHJ3 whole entry): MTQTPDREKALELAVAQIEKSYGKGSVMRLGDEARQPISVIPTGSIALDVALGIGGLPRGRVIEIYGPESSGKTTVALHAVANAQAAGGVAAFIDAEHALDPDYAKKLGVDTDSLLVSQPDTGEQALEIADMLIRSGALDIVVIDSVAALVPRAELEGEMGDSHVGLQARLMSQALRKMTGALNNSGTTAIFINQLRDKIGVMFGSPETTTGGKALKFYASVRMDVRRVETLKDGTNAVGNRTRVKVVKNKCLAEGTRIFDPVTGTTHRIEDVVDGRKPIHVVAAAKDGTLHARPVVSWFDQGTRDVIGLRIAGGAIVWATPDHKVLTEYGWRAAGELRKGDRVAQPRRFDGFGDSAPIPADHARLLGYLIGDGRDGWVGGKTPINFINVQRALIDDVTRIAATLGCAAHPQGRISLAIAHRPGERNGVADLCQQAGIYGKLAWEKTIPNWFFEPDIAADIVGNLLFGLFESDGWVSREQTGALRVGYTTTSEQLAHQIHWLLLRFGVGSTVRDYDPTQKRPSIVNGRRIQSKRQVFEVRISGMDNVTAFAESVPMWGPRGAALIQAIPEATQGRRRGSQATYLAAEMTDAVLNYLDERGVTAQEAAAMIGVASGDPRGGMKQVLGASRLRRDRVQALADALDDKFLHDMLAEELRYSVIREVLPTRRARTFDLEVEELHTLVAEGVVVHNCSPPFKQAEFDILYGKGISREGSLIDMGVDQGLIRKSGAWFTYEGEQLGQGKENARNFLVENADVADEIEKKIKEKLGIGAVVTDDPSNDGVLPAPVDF

[11] = system: HEK293; experiment: Fluorescence-based counterscreen for potentiators or agonists of NPY-Y2: cell-based high-throughput dose response assay to identify inhibitors of cyclic nucleotide gated ion channel (CNGC) activity. In this assay, the parental HEK293 cell line transfected with a cyclic-nucleotide gated ion channel (CNGC)-based cAMP sensor is used to measure inhibition of isoproterenol-induced CNGC activity by test compound.; assay type: functional; conditions: Homo sapiens;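 note: stimulus is 1 µM isoproterenol at EC100 plus PDE inhibitor Ro 20-1724 at 25 µM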
[12] = target: T3, Neuropeptide Y receptor type 2 (Homo sapiens, UniProt P49146); experiment: Fluorescence-based cell-based high-throughput dose response assay for agonists of NPY-Y2. [Related pubchem assays: 1703 (Screening assay (CNGC inhibitors).), 1359 (Screening assay (NPY-Y2 potentiators or agonists).), 1304 (Screening assay (NPY-Y1 potentiators or agonists).), 1710 (Screening assay (NPY-Y2 agonists).), 1791 (Summary AID.)]; assay type: functional
T3 sequence (P49146 whole entry): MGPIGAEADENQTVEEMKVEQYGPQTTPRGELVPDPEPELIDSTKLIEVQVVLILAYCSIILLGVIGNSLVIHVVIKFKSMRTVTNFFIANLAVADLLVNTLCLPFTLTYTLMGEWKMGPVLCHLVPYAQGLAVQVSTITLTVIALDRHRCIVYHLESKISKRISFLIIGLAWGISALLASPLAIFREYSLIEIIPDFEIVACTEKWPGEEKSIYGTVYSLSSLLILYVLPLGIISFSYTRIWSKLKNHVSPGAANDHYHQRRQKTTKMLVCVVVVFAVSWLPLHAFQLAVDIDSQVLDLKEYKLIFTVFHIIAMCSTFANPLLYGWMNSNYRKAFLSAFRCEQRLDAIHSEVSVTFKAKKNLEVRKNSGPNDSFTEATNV

[13] = target: T4, Neuropeptide Y receptor type 1 (Homo sapiens, UniProt P25929); experiment: Fluorescence-based counterscreen for agonists of NPY-Y2: cell-based high-throughput dose response assay for agonists of NPY-Y1.; assay type: functional
T4 sequence (P25929 whole entry): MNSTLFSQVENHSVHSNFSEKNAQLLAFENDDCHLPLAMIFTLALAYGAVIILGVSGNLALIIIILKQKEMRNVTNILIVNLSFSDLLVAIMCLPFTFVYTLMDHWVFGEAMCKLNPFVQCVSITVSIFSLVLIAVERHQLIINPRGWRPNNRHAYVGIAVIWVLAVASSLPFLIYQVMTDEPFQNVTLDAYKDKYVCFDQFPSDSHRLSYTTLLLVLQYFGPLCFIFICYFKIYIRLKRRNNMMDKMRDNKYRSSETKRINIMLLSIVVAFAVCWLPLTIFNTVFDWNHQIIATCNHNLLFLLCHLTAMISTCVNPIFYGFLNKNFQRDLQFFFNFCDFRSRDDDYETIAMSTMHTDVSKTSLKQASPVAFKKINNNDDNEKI

G2/mitotic-specific cyclin-B1, sequence (P14635 whole entry): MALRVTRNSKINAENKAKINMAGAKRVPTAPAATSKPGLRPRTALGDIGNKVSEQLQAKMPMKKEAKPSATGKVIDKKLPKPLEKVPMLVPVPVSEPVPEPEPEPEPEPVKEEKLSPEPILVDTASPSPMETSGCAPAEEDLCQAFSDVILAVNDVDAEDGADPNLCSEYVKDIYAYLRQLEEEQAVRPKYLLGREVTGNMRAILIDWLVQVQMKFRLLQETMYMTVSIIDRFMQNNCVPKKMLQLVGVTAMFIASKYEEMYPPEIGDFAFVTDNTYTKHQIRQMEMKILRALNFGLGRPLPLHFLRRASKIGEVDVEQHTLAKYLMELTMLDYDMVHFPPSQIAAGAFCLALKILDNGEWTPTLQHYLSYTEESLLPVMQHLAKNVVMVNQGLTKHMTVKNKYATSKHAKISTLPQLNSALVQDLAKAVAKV
Wee1-like protein kinase, sequence (P30291 whole entry): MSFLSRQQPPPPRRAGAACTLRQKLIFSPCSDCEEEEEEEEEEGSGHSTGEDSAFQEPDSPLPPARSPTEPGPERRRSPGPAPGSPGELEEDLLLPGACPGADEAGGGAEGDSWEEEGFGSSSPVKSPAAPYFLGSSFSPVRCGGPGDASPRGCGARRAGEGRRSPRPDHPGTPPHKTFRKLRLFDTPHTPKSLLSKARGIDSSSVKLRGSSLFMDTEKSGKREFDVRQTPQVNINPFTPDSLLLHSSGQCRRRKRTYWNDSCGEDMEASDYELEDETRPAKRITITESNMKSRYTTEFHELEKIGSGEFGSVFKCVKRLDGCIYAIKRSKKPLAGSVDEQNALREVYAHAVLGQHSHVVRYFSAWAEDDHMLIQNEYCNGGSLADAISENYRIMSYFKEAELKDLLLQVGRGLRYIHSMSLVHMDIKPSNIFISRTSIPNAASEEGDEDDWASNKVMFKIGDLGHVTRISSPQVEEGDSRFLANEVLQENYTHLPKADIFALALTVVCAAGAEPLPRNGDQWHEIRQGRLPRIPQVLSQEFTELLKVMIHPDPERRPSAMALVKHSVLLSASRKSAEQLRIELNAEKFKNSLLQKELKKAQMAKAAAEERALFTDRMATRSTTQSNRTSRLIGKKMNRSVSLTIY
E3 ubiquitin-protein ligase Mdm2, sequence (Q00987 whole entry): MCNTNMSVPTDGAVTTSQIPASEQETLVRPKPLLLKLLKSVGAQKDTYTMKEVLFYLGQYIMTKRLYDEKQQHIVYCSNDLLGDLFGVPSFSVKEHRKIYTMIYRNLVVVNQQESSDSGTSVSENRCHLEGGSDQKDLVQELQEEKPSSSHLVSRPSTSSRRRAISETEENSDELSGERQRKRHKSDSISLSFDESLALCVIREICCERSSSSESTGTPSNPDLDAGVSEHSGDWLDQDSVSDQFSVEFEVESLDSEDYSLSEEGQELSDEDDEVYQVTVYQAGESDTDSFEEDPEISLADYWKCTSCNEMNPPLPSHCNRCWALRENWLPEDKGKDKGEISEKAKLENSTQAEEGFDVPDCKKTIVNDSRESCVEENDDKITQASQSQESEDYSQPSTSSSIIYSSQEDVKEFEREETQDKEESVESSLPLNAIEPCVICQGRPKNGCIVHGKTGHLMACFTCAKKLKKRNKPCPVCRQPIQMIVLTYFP

Row | SMILES | EC50 [1] | EC50 [2] | EC50 [3] | EC50 [4] | EC50 [5] | EC50 [6] | EC50 [7] | EC50 [8] | AC50 [9] | EC50 [10] | EC50 [11] | EC50 [12] | EC50 [13]
1 | CCOC(=O)C1=C(c2ccccc2)O/C(=C(/C#N)C(F)(F)F)S1 | > 1.84 µM (active) | 0.84 µM (active) | > 1.84 µM (active) | 4.58 µM (inconclusive) | 2.37 µM (active) | 4.88 µM (active) | 5.47 µM (inconclusive) | 6.24 µM (inconclusive) | > 380 µM (inactive) | 0.723 µM (active) |  |  | 
2 | O=C(Cc1ccc(Cl)cc1)Nc1cccc(S(=O)(=O)Nc2ccccc2F)c1 |  |  |  |  |  |  |  |  |  |  | 10.2 µM (not active) | 15.7 µM (not active) | 15.7 µM (not active)
